Laboratory results published in ChEMBL document CHEMBL1201862, “PubChem BioAssay data set” (2004).
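Step 1: Grow cells in 96-well plates. Step 2: Expose to compound for 48 hours at 5 concentrations. Step 3: Interpolate endpoints linearly; if unreached, use highest concentration. The concentration for 50% growth inhibition is given as GI50.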 Calls of active or inactive are those of the source. Cut-off read from the data, not from the text of the source: active = GI50 up to about 1.1 µM and inactive = higher.

How the values were obtained:
Experiment in all cases: NCI tumour cell line growth inhibition, 48 h
OVCAR-5 = system: OVCAR-5
HOP-92 = system: HOP-92
SF-295 = system: SF-295
HL-60 = system: HL-60
COLO 205 = system: COLO 205
A549 = system: A549
UO-31 = system: UO-31
SR = system: SR
NCI/ADR-RES = system: NCI/ADR-RES
U-251 = system: U-251
A498 = system: A498
NCI-H226 = system: NCI-H226
OVCAR-3 = system: OVCAR-3
TK-10 = system: TK-10
K562 = system: K562
RXF 393 = system: RXF 393
NCI-H23 = system: NCI-H23
NCI-H460 = system: NCI-H460
MDA-MB-231 = system: MDA-MB-231
SNB-75 = system: SNB-75

Row | Structure (SMILES) | GI50 (OVCAR-5) | GI50 (HOP-92) | GI50 (SF-295) | GI50 (HL-60) | GI50 (COLO 205) | GI50 (A549) | GI50 (UO-31) | GI50 (SR) | GI50 (NCI/ADR-RES) | GI50 (U-251) | GI50 (A498) | GI50 (NCI-H226) | GI50 (OVCAR-3) | GI50 (TK-10) | GI50 (K562) | GI50 (RXF 393) | GI50 (NCI-H23) | GI50 (NCI-H460) | GI50 (MDA-MB-231) | GI50 (SNB-75)
1 | O=C(CCc1ccc(O)cc1)NCCc1cccc(OCc2ccccc2)c1 | 43.5 µM (inactive) | 23.6 µM (inactive) | 30.3 µM (inactive) | 16.6 µM (inactive) | 49.4 µM (inactive) | 40.1 µM (inactive) | 12.7 µM (inactive) | 15.4 µM (inactive) | 28.1 µM (inactive) | 22.7 µM (inactive) | 55.8 µM (inactive) | 29 µM (inactive) | 17.2 µM (inactive) | 28.6 µM (inactive) | 17.9 µM (inactive) | 15.8 µM (inactive) | 24.4 µM (inactive) | 22.8 µM (inactive) | 29 µM (inactive) | –
2 | O=c1cnn(C/C=C/CO)c(=O)[nH]1 | > 100 µM (inactive) | > 100 µM (inactive) | – | > 100 µM (inactive) | > 100 µM (inactive) | > 100 µM (inactive) | > 100 µM (inactive) | > 100 µM (inactive) | > 100 µM (inactive) | > 100 µM (inactive) | > 100 µM (inactive) | > 100 µM (inactive) | > 100 µM (inactive) | > 100 µM (inactive) | > 100 µM (inactive) | > 100 µM (inactive) | > 100 µM (inactive) | > 100 µM (inactive) | > 100 µM (inactive) | > 100 µM (inactive)
3 | OC1(c2ccc(Cl)cc2)c2c(c3ccccc3c3ccccc23)C2=NCCN21 (configuration not stated) | 17 µM (inactive) | 16.6 µM (inactive) | 11.5 µM (inactive) | > 100 µM (inactive) | 28.2 µM (inactive) | 9.14 µM (inactive) | 10.7 µM (inactive) | 4.42 µM (inactive) | 11.5 µM (inactive) | 12.8 µM (inactive) | 19.1 µM (inactive) | – | 23.8 µM (inactive) | 4.98 µM (inactive) | 37.3 µM (inactive) | 11.4 µM (inactive) | 11.6 µM (inactive) | 15.8 µM (inactive) | 12 µM (inactive) | 2.91 µM (inactive)
4 | COc1cc(C(=O)Nc2cc(C(N)=O)cc(OC)c2OC)cc(NC(=O)/C=C/c2ccccc2)c1OC | > 100 µM (inactive) | 5.11 µM (inactive) | 2.67 µM (inactive) | 96.4 µM (inactive) | > 100 µM (inactive) | > 100 µM (inactive) | > 100 µM (inactive) | 20.4 µM (inactive) | > 100 µM (inactive) | – | – | – | 3.68 µM (inactive) | > 100 µM (inactive) | > 100 µM (inactive) | > 100 µM (inactive) | > 100 µM (inactive) | 66.4 µM (inactive) | 20 µM (inactive) | 1.71 µM (inactive)
5 | Cc1cc(NS(=O)(=O)c2ccc(/N=[N+](\[O-])c3ccc(S(=O)(=O)Nc4cc(C)on4)cc3)cc2)no1 | > 100 µM (inactive) | > 100 µM (inactive) | > 100 µM (inactive) | > 100 µM (inactive) | > 100 µM (inactive) | > 100 µM (inactive) | > 100 µM (inactive) | > 100 µM (inactive) | > 100 µM (inactive) | > 100 µM (inactive) | > 100 µM (inactive) | > 100 µM (inactive) | > 100 µM (inactive) | > 100 µM (inactive) | > 100 µM (inactive) | > 100 µM (inactive) | > 100 µM (inactive) | – | > 100 µM (inactive) | > 100 µM (inactive)
6 | CCOC(=O)C(COS(C)(=O)=O)(COS(C)(=O)=O)C(=O)OCC | – | > 100 µM (inactive) | > 100 µM (inactive) | – | > 100 µM (inactive) | > 100 µM (inactive) | > 100 µM (inactive) | > 100 µM (inactive) | > 100 µM (inactive) | > 100 µM (inactive) | 11.1 µM (inactive) | > 100 µM (inactive) | > 100 µM (inactive) | > 100 µM (inactive) | > 100 µM (inactive) | > 100 µM (inactive) | > 100 µM (inactive) | > 100 µM (inactive) | > 100 µM (inactive) | > 100 µM (inactive)
7 | N/N=C(\N)SCc1ccc(N=C=S)cc1 | > 100 µM (inactive) | > 100 µM (inactive) | > 100 µM (inactive) | > 100 µM (inactive) | > 100 µM (inactive) | > 100 µM (inactive) | > 100 µM (inactive) | > 100 µM (inactive) | > 100 µM (inactive) | > 100 µM (inactive) | > 100 µM (inactive) | – | – | > 100 µM (inactive) | > 100 µM (inactive) | > 100 µM (inactive) | > 100 µM (inactive) | > 100 µM (inactive) | > 100 µM (inactive) | > 100 µM (inactive)
8 | O=[N+]([O-])c1ccc(C(=S)Nc2ccccc2)o1 | 4.54 µM (inactive) | 15.3 µM (inactive) | 5.56 µM (inactive) | 2.1 µM (inactive) | – | 6.55 µM (inactive) | 2.32 µM (inactive) | 1.79 µM (inactive) | 2.16 µM (inactive) | 1.48 µM (inactive) | 18.1 µM (inactive) | – | 2.19 µM (inactive) | 4.74 µM (inactive) | 0.938 µM (active) | 4.14 µM (inactive) | 3.35 µM (inactive) | 3.19 µM (inactive) | 2.74 µM (inactive) | 7.67 µM (inactive)
9 | CSc1ccc2c(cc1=O)[C@@H](NC(C)=O)CCc1cc(O)c(O)c(O)c1-2 | 17.1 µM (inactive) | 23.7 µM (inactive) | 13.3 µM (inactive) | 37.8 µM (inactive) | 30.4 µM (inactive) | 20.1 µM (inactive) | 21.6 µM (inactive) | 7.8 µM (inactive) | 19.9 µM (inactive) | 16.3 µM (inactive) | 23.3 µM (inactive) | 15.4 µM (inactive) | 18.6 µM (inactive) | 18.8 µM (inactive) | – | 72.4 µM (inactive) | 20.5 µM (inactive) | 16.4 µM (inactive) | 23.9 µM (inactive) | 14.3 µM (inactive)
10 | COC(=O)C(/C(=N/N)C(=O)Nc1cccc(O)c1)c1nc2ccccc2nc1O (configuration not stated) | > 100 µM (inactive) | > 100 µM (inactive) | > 100 µM (inactive) | > 100 µM (inactive) | – | > 100 µM (inactive) | > 100 µM (inactive) | > 100 µM (inactive) | > 100 µM (inactive) | > 100 µM (inactive) | > 100 µM (inactive) | > 100 µM (inactive) | > 100 µM (inactive) | > 100 µM (inactive) | > 100 µM (inactive) | > 100 µM (inactive) | > 100 µM (inactive) | > 100 µM (inactive) | > 100 µM (inactive) | > 100 µM (inactive)
11 | N#CC(C#N)=C1/C(=C/C=C/C=C/C=C/c2ccc(N3CCCCC3)s2)S(=O)(=O)c2ccccc21 | > 100 µM (inactive) | 95.9 µM (inactive) | > 100 µM (inactive) | > 100 µM (inactive) | > 100 µM (inactive) | > 100 µM (inactive) | – | 50.5 µM (inactive) | > 100 µM (inactive) | 46.7 µM (inactive) | > 100 µM (inactive) | > 100 µM (inactive) | > 100 µM (inactive) | 81.3 µM (inactive) | > 100 µM (inactive) | > 100 µM (inactive) | > 100 µM (inactive) | > 100 µM (inactive) | > 100 µM (inactive) | > 100 µM (inactive)
12 | COC(=O)/C=C1\SC2(O\C1=N/c1ccccc1)C1CC3CC(C1)CC2C3 (configuration not stated) | > 100 µM (inactive) | > 100 µM (inactive) | > 100 µM (inactive) | > 100 µM (inactive) | – | > 100 µM (inactive) | > 100 µM (inactive) | > 100 µM (inactive) | > 100 µM (inactive) | > 100 µM (inactive) | > 100 µM (inactive) | > 100 µM (inactive) | > 100 µM (inactive) | > 100 µM (inactive) | > 100 µM (inactive) | > 100 µM (inactive) | – | > 100 µM (inactive) | > 100 µM (inactive) | > 100 µM (inactive)
13 | CCOC(=O)C1CCCCN1CCc1c[nH]c2ccccc12 (configuration not stated) | > 100 µM (inactive) | 16 µM (inactive) | 66.2 µM (inactive) | – | > 100 µM (inactive) | 74.6 µM (inactive) | 83.4 µM (inactive) | > 100 µM (inactive) | 73.1 µM (inactive) | > 100 µM (inactive) | 44.1 µM (inactive) | 71.6 µM (inactive) | > 100 µM (inactive) | > 100 µM (inactive) | 72.3 µM (inactive) | 80.9 µM (inactive) | 83.8 µM (inactive) | 94.8 µM (inactive) | > 100 µM (inactive) | > 100 µM (inactive)
14 | Cn1c2c(c3ccccc31)CCN=C2C1CCCOC1=O (configuration not stated) | > 100 µM (inactive) | 45.4 µM (inactive) | – | > 100 µM (inactive) | > 100 µM (inactive) | > 100 µM (inactive) | 43.5 µM (inactive) | > 100 µM (inactive) | > 100 µM (inactive) | > 100 µM (inactive) | > 100 µM (inactive) | 11.7 µM (inactive) | > 100 µM (inactive) | > 100 µM (inactive) | – | > 100 µM (inactive) | – | > 100 µM (inactive) | > 100 µM (inactive) | 85.9 µM (inactive)
15 | CCc1nc(N)nc(N)c1-c1ccc(Cl)c([N+]#N)c1 | > 100 µM (inactive) | > 100 µM (inactive) | 39 µM (inactive) | 40.8 µM (inactive) | 56 µM (inactive) | 20.6 µM (inactive) | 78.3 µM (inactive) | 22.9 µM (inactive) | 49.8 µM (inactive) | 64.3 µM (inactive) | – | > 100 µM (inactive) | 44.5 µM (inactive) | > 100 µM (inactive) | 6.32 µM (inactive) | > 100 µM (inactive) | 28.5 µM (inactive) | 37.8 µM (inactive) | > 100 µM (inactive) | > 100 µM (inactive)
